Drawing on patent US12492188B2, “1H-benzo[D]imidazole derivatives as TLR9 inhibitors for the treatment of fibrosis” (BRISTOL-MYERS SQUIBB COMPANY, priority 2020, dated 2025), this text covers IC50 for nine molecules.

Type in all cases: cell-based
One assay addresses T1, human TLR9 (Homo sapiens, UniProt Q9NR96).
T1 construct: host or cells: HEK-Blue cells (HEK293-derived reporter line)
T1 sequence (Q9NR96 26-1032): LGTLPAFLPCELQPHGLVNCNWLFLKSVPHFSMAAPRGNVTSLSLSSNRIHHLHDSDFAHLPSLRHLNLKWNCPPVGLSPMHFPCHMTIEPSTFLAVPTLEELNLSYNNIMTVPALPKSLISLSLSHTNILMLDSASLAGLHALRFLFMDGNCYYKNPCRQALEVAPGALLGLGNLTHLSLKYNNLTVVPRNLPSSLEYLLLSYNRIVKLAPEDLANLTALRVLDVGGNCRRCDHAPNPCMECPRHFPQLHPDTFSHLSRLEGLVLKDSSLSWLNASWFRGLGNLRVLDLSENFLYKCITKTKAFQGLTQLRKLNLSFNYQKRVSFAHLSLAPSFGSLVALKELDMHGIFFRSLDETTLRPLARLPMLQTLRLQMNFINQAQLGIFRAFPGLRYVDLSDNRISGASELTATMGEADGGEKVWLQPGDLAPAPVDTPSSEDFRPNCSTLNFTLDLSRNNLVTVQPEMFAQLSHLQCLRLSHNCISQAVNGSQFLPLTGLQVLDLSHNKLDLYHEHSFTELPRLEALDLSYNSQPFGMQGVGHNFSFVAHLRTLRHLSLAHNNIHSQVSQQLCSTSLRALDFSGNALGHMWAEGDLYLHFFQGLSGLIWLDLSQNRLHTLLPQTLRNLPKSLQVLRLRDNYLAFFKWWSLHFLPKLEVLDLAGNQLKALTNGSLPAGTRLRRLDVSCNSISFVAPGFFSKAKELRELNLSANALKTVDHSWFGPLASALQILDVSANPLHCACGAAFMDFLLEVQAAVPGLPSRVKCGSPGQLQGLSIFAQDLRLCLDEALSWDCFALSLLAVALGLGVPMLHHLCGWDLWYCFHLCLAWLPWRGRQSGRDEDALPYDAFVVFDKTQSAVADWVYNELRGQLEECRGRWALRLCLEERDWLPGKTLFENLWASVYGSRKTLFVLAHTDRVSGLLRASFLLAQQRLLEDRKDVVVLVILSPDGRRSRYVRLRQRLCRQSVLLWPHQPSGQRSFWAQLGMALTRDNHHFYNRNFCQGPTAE
The experiment in a line: TLR9 inhibition reporter assay (HEK-Blue cells, secreted embryonic alkaline phosphatase reporter). In a few lines:
(§1)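 Cells seeded at 15000 (TLR7), 20,000 (TLR8) or 25,000 (TLR9) per well; compound 0.05 nM–50 μM, 30 min RT pre-incubation. Agonists: gardiquimod 7.5 μM, R848 15.9 μM, ODN2006 5 nM respectively. 22 h, 37 °C; SEAP via HEK-Blue Detection; % inhibition vs agonist+DMSO and known-inhibitor wells.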
In general terms: In a reporter assay the amount or activity of a reporter protein is the signal.

The next assay has as its target T2, human TLR8 (Homo sapiens, UniProt Q9NR97).
T2 construct: host or cells: HEK-Blue cells (HEK293-derived reporter line)
T2 sequence (Q9NR97 27-1041): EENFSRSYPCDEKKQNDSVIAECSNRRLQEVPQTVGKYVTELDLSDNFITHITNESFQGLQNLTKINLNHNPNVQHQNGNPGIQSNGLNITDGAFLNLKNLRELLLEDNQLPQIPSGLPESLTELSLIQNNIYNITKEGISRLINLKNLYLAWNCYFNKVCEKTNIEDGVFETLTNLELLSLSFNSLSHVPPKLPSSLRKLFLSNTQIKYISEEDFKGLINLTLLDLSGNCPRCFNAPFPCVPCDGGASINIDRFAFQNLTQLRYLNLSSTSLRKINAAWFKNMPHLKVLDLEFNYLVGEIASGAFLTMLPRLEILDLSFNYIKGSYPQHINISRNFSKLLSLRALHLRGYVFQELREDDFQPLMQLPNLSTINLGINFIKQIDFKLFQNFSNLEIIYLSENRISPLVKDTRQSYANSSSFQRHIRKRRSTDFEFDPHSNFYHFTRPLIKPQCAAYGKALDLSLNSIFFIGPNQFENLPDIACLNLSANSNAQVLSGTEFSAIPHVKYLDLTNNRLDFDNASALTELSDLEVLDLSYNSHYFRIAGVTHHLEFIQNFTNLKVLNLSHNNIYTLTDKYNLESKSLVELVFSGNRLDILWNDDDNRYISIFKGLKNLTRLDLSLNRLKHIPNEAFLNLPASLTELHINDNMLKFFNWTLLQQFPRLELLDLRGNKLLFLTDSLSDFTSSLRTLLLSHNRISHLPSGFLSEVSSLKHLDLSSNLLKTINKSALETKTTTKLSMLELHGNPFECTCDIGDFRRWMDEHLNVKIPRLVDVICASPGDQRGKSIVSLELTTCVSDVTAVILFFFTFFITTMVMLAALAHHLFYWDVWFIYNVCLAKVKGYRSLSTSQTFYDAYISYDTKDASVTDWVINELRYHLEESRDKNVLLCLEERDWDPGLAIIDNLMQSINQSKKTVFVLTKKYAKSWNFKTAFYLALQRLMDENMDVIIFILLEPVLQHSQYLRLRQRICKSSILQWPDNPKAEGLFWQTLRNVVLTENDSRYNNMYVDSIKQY
In words: TLR8 inhibition reporter assay (HEK-Blue cells, secreted embryonic alkaline phosphatase reporter). Particulars: HEK-Blue cells overexpressing human TLR8, stimulated with R848 15.9 μM; read-out: TLR 8 IC50. The method in brief:
as §1

The target of the next assay is T3, human TLR7 (Homo sapiens, UniProt Q9NYK1).
T3 construct: host or cells: HEK-Blue cells (HEK293-derived reporter line)
T3 sequence (Q9NYK1 27-1049): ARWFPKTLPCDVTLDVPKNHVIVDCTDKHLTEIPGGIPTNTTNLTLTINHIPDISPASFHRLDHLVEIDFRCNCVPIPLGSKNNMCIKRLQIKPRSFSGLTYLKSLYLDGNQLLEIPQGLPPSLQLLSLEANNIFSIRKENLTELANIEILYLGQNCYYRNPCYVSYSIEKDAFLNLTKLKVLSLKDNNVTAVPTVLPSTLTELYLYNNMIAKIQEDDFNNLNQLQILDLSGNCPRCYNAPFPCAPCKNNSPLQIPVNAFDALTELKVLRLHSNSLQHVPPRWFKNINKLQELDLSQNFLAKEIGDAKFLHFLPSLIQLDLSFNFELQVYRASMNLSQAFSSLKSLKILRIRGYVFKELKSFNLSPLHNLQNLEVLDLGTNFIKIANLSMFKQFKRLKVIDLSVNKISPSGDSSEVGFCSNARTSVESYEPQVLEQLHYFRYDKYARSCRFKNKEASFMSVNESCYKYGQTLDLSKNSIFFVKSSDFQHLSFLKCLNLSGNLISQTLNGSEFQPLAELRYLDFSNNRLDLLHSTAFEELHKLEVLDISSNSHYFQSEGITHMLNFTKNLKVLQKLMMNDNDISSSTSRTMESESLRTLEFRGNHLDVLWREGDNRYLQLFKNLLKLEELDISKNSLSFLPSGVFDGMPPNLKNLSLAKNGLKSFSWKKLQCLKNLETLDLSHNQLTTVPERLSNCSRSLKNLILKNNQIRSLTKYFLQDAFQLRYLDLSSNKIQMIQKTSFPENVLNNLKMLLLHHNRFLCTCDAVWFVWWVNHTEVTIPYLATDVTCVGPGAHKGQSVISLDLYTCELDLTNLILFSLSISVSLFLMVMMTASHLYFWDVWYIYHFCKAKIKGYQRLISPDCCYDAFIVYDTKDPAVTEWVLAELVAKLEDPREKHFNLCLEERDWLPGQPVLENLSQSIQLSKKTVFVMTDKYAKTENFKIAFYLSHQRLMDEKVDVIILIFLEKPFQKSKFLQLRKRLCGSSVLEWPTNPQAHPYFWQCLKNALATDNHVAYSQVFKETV
The experiment in a line: TLR7 inhibition reporter assay (HEK-Blue cells, secreted embryonic alkaline phosphatase reporter). As to conditions: HEK-Blue cells overexpressing human TLR7, stimulated with gardiquimod 7.5 μM; read-out: TLR 7 IC50. In a few lines:
as §1

The mark [1] stands for this setting: HEK-Blue cells overexpressing human TLR9, stimulated with ODN2006 5 nM, read-out: TLR 9 IC50.

Each structure is given as a SMILES string. Where two headings read alike, the source gives them in different places.

For `Cc1cc(C2CCN(C3CC4CCC(C3)N4C3COC3)CC2)cc2c1nc(-c1ccc(S(C)(=O)=O)cc1)n2C` (single isomer, unassigned) [Example 159, 1,4-dimethyl-2-(4-(methylsulfonyl)phenyl)-6-(1-(8-(oxetan-3-yl)-8-azabicyclo[3.2.1]octan-3-yl)piperidin-4-yl)-1H-benzo[d]imidazole], the IC50 – broadly, the concentration at which inhibition is half-maximal – is 0.93 µM at human TLR9, 0.934 µM on human TLR9 (setting [1]), over 25 µM on human TLR8 and over 25 µM at human TLR7.
In the case of `Cc1cc(C2CCN(C3CC4CCC(C3)N4C3CCOCC3)CC2)cc2c1nc(-c1ccc(S(C)(=O)=O)cc1)n2C` (single isomer, unassigned) [Example 160, 1,4-dimethyl-2-(4-(methylsulfonyl)phenyl)-6-(1-(8-(tetrahydro-2H-pyran-4-yl)-8-azabicyclo[3.2.1]octan-3-yl)piperidin-4-yl)-1H-benzo[d]imidazole], the IC50 against human TLR9 is 0.052 µM; on human TLR9 (setting [1]) it was 0.052 µM; at human TLR8, over 25 µM; at human TLR7 it was 23.5 µM.
Regarding `Cc1cc(C2CCN(C3CC4CCC(C3)N4C3CCOCC3)CC2)cc2c1nc(-c1ccc(S(C)(=O)=O)cc1)n2C` (single isomer, unassigned) [Example 161, 1,4-dimethyl-2-(4-(methylsulfonyl)phenyl)-6-(1-(8-(tetrahydro-2H-pyran-4-yl)-8-azabicyclo[3.2.1]octan-3-yl)piperidin-4-yl)-1H-benzo[d]imidazole], the 50% inhibitory concentration (IC50) at human TLR9 was 0.21 µM; on human TLR9 (setting [1]), 0.211 µM; on human TLR8 it was over 25 µM; on human TLR7 it was over 25 µM.
As to `COCCN1C2CCC1CC(N1CCC(c3cc(C)c4nc(-c5ccc(S(C)(=O)=O)cc5)n(C)c4c3)CC1)C2` (single isomer, unassigned) [Example 162, 6-(1-(8-(2-methoxyethyl)-8-azabicyclo[3.2.1]octan-3-yl)piperidin-4-yl)-1,4-dimethyl-2-(4-(methylsulfonyl)phenyl)-1H-benzo[d]imidazole], the IC50 is 0.061 µM against human TLR9, 0.061 µM at human TLR9 (setting [1]), over 25 µM at human TLR8 and 19.9 µM at human TLR7.
`COCCN1C2CCC1CC(N1CCC(c3cc(C)c4nc(-c5ccc(S(C)(=O)=O)cc5)n(C)c4c3)CC1)C2` (single isomer, unassigned) [Example 163, 6-(1-(8-(2-methoxyethyl)-8-azabicyclo[3.2.1]octan-3-yl)piperidin-4-yl)-1,4-dimethyl-2-(4-(methylsulfonyl)phenyl)-1H-benzo[d]imidazole]: the IC50 at human TLR9 was 0.6 µM; at human TLR9 (setting [1]), 0.599 µM; at human TLR8, over 25 µM; at human TLR7 it was 6.2 µM.
For `COc1ccc(-c2nc3c(C)cc(C4CCN(C5CC6CCC(C5)N6C5COC5)CC4)cc3n2C)cc1OC` (single isomer, unassigned) [Example 164, 2-(3,4-dimethoxyphenyl)-1,4-dimethyl-6-(1-(8-(oxetan-3-yl)-8-azabicyclo[3.2.1]octan-3-yl)piperidin-4-yl)-1H-benzo[d]imidazole], the IC50 on human TLR9 is 0.11 µM; at human TLR9 (setting [1]), 0.109 µM; on human TLR8 it was over 25 µM; at human TLR7, over 25 µM.
As to `COc1ccc(-c2nc3c(C)cc(C4CCN(C5CC6CCC(C5)N6C5COC5)CC4)cc3n2C)cc1OC` (single isomer, unassigned) [Example 165, 2-(3,4-dimethoxyphenyl)-1,4-dimethyl-6-(1-(8-(oxetan-3-yl)-8-azabicyclo[3.2.1]octan-3-yl)piperidin-4-yl)-1H-benzo[d]imidazole], the IC50 against human TLR9 was 1.3 µM; at human TLR9 (setting [1]), 1.3 µM; on human TLR8, over 25 µM; on human TLR7, over 25 µM.
As for `COc1ccc(-c2nc3c(C)cc(C4CCN(C5CC6CCC(C5)N6C5CCOCC5)CC4)cc3n2C)cc1OC` (single isomer, unassigned) [Example 166, 2-(3,4-dimethoxyphenyl)-1,4-dimethyl-6-(1-(8-(tetrahydro-2H-pyran-4-yl)-8-azabicyclo[3.2.1]octan-3-yl)piperidin-4-yl)-1H-benzo[d]imidazole], the IC50 is 0.04 µM against human TLR9, 0.04 µM on human TLR9 (setting [1]), over 25 µM on human TLR8 and 4.7 µM at human TLR7.
As to `COc1ccc(-c2nc3c(C)cc(C4CCN(C5CC6CCC(C5)N6C5CCOCC5)CC4)cc3n2C)cc1OC` (single isomer, unassigned) [Example 167, 2-(3,4-dimethoxyphenyl)-1,4-dimethyl-6-(1-(8-(tetrahydro-2H-pyran-4-yl)-8-azabicyclo[3.2.1]octan-3-yl)piperidin-4-yl)-1H-benzo[d]imidazole], the IC50 at human TLR9 was 0.79 µM; on human TLR9 (setting [1]), 0.788 µM; at human TLR8, over 25 µM; on human TLR7 it was over 25 µM.
